Measurements from US20240100176A1, “HUMAN INTERLEUKIN-4 RECEPTOR ALPHA ANTIBODY GLUCOCORTICOID CONJUGATES” (Eli Lilly and Company, priority 2022, published 2024).
pIC50: −log10 of the molar value.

Key:
Type in all cases: cell-based
[1] = tested on: IL-4 induced proliferation of human primary B cells; assay: Inhibition of IL-4 induced B cell proliferation
Procedure: Human PBMCs were isolated from human blood samples by standard Ficoll-Paque™ plus (GE […]) density gradient centrifugation methods, and primary B cells were isolated from the PBMC suspension by negative selection with EasySep™ Human Naïve B cell Enrichment kit according to the manufacturer's protocol ([…]™ Technologies). […] Cells were stimulated with Human CD40/TNFRSF5 Antibody (200 ng/mL; R&D SYSTEMS) and with IL-4 recombinant human protein (5 ng/mL; R&D SYSTEMS) for 2 days at 37° C. and 5% CO2. Cells were then pulsed with [^3H]-thymidine ([…] thymidine/well; PerkinElmer®) for 18 hours at 37° C. and level of [^3H]-thymidine incorporation was measured by a Microplate Counter (MicroBeta 2; PerkinElmer®) and expressed as a […] (CCPM). Statistical analysis was performed using GraphPad Prism 9 and curves were generated by fitting a sigmoidal curve of the log (Ab concentration) vs. the mean percent inhibition of CCPM compared to CD40 stimulation alone from two donors.

[2] = tested on: anti-CD40 induced proliferation of human primary B cells; assay: Glucocorticoid receptor mediated inhibition of anti-CD40 induced B cell proliferation
Procedure: Human PBMCs were isolated from human blood samples by standard Ficoll-Paque™ plus (GE […]) density gradient centrifugation methods, and primary B cells were isolated from the PBMC suspension by negative selection with EasySep™ Human Naïve B cell Enrichment kit according to the manufacturer's protocol ([…]™ Technologies). […] Cells were then pulsed with [^3H]-thymidine ([…] thymidine/well; PerkinElmer®) for 18 hours at 37° C. and level of [^3H]-thymidine incorporation was measured by a Microplate Counter (MicroBeta 2; PerkinElmer®) and expressed as a […] (CCPM). Statistical analysis was performed using GraphPad Prism 9 and curves were generated by fitting a sigmoidal curve of the log(Ab concentration) vs. the mean percent inhibition of CCPM compared to no stimulation from 2 donors.

[3] = tested on: GM-CSF secretion from Human PBMCs; assay: Inhibition of cytokine secretion from human PBMCs; settings: PBMC; PHA-M/PMA stimulated human PBMCs, 48 hours; 100 nM
Procedure: (§1) Example 4h. Inhibition of Cytokine secretion from Human PBMCs: PBMCs were isolated from Ficoll-layered blood centrifuged at 400×g for 30 minutes at room temperature. The PBMC layer was washed with sterile RPMI-1640 media (Corning® Cat. #10041CV) and centrifuged at 1500 rpm for 5 min, at 4° C. Red blood cells are lysed by resuspending the cell pellet in 5 mL of ACK Lysing Buffer (GIBCO Cat. #A1049201) and incubating at room temperature for 5 minutes. […] The plates are incubated at 37° C. with 5% CO2 for 48 hours. After the incubation period, plates are centrifuged at 2000 rpm for 1 min and the top 100 μL of the supernatants are removed and stored at −80° C., until ready to perform cytokine detection. Cytokine release is detected using the U-PLEX Custom Biomarker [Human] Multiplex Assay (MESO SCALE DISCOVERY), according to the manufacturer's protocol. Statistical analysis is performed using GraphPad Prism 9. Data was presented as sigmoidal curve fits of the mean of the individual donors' percent inhibition for each cytokine (n=2) vs. the log(Ab concentration) and statistical analysis is performed using GraphPad Prism 9.

[4] = tested on: IL-5 secretion from Human PBMCs; assay: Inhibition of cytokine secretion from human PBMCs; settings: PBMC; PHA-M/PMA stimulated human PBMCs, 48 hours; 100 nM
Procedure: as §1

[5] = tested on: MDC secretion from Human PBMCs; assay: Inhibition of cytokine secretion from human PBMCs; settings: PBMC; PHA-M/PMA stimulated human PBMCs, 48 hours; 100 nM
Procedure: as §1

SMILES: Cc1ccc(OCc2cccc(N)c2)c(F)c1[C@H]1O[C@@H]2C[C@H]3[C@@H]4CCC5=CC(=O)C=C[C@]5(C)[C@H]4[C@@H](O)C[C@]3(C)[C@]2(C(=O)CO)O1 (single isomer, unassigned) [GC1]
- inhibition at 0.06667 µM ([1]; Homo sapiens, B-cell, IL-4 induced, 66.67 nM): 25.7%
- Inhibition of IL-4 induced B cell proliferation (in words) ([1]; compared to the isotype control): no significant inhibition was observed
- pIC50 ([2]; anti-CD40 (200 ng/mL) induced, no IL-4): 8.43
- inhibition at 0.1 µM ([2]; read-out: Inhibition of B cell proliferation at 100 nM % inhibition, anti-CD40 induced, 100 nM): 66.5%
- inhibition at 0.1 µM [3]: 90.8%
- inhibition at 0.1 µM [4]: 97.4%
- inhibition at 0.1 µM [5]: 96.1%
